Earlier results on two compounds are cited in patent US20210220374A1, “METHODS OF TREATING TE[…]” (Clarus Therapeutics, Inc., priority 2013, published 2021).

For this series the following is noted: cited from earlier work.

As to `C[C@]12CCC(=O)C=C1CC[C@@H]1[C@@H]2CC[C@@]2(C)[C@H]1CC[C@]2(C)O` [methyltestosterone], the Liver toxicity entry (oral therapy) is listed as “significant occurrence of liver toxicity”.

With `C[C@]12CC[C@H]3[C@@H](CCC4=CC(=O)CC[C@@]43C)[C@@H]1CC[C@@H]2O` [testosterone], the “Serum half-life of testosterone in men” value (in vivo) was 10 to 100 min.
